Experimental findings from ChEMBL document CHEMBL4699551, “Bromotryptamine and Imidazole Alkaloids with Anti-inflammatory Activity from the Bryozoan Flustra foliacea” (J Nat Prod, 2020) are described below.

Data set [1] has as its system Dendritic cell. Kind of data set: Antiinflammatory activity in human monocytes-derived dendritic cells assessed as increase in IL-10 secretion at 10 ug/ml after 24 hrs by ELISA method relative to control. The class given is functional. On the technique in general: An ELISA detects its analyte on a solid surface through an enzyme-linked reagent.
Data set [2] has as its system Dendritic cell. Kind of data set: Antiinflammatory activity in human monocytes-derived dendritic cells assessed as decrease in IL-12p40 secretion at 10 ug/ml after 24 hrs by ELISA method relative to control. It counts as functional.
Data set [3] has as its system Dendritic cell. Kind of data set: Cytotoxicity against human monocytes-derived dendritic cells assessed as reduction in cell viability after 10 ug/ml after 24 hrs by trypan blue staining based assay. Conditions: dose 10 µg/ml.
Data set [4] concerns Dendritic cell. Description: Antiinflammatory activity in human monocytes-derived dendritic cells assessed as decrease in IL-12p40 secretion after 24 hrs by ELISA method relative to control. The class given is functional, cell-based.

SMILES strings stand for the structures. Calls of active or inactive are those of the source. No cut-off for these calls is given here.

With `C=CC(C)(C)[C@@]12CCN(C)[C@@H]1N(C(OC)C(O)C(C)(C)O)c1cc(Br)ccc12` (some centres not stated), the result with Dendritic cell [1] (dose 10.0 µg/ml) and with Dendritic cell [2] (dose 10.0 µg/ml) was inactive.

For `CC(C)=CCN1c2cc(Br)ccc2[C@]2(CC=C(C)C)CCN(C)[C@H]12`, the result in the data set with Dendritic cell [1] (dose 10.0 µg/ml) and in the data set on Dendritic cell [2] (dose 10.0 µg/ml) was inactive. In the case of `C/C(=C\C(=O)NCCc1c[nH]cn1)CCCC(C)(C)O`, the Activity in the data set on Dendritic cell [1] (dose 10 µg/ml) is recorded as 19%.

On to `C=CC(C)(C)[C@@]12CCN(C)[C@@H]1N(C(O)C(O)C(C)(C)O)c1cc(Br)ccc12` (some centres not stated), for which the result with Dendritic cell [1] (dose 10.0 µg/ml) and with Dendritic cell [2] (dose 10.0 µg/ml) was inactive. Take `C=CC(C)(C)[C@@]12CCN(C)C1=Nc1cc(Br)ccc12`: the outcome in the data set with Dendritic cell [1] (dose 10.0 µg/ml) and in the data set on Dendritic cell [2] (dose 10.0 µg/ml) was inactive.

Consider `C=CC(C)(C)[C@@]12CCN(C)[C@@H]1N(CC=C(C)C)c1cc(Br)ccc12`, for which the result with Dendritic cell [1] (dose 10.0 µg/ml) and in the data set on Dendritic cell [2] (dose 10.0 µg/ml) was inactive. Turning to `CC(C)=CC[C@@]12CCN(C)[C@@H]1Nc1cc(Br)ccc12`, the result with Dendritic cell [1] (dose 10.0 µg/ml) and in the data set on Dendritic cell [2] (dose 10.0 µg/ml) was inactive. Turning to `C=CC(C)(C)[C@@]12CCN(C)[C@@H]1N(CC(O)C(C)(C)O)c1cc(Br)ccc12` (some centres not stated), the outcome in the data set on Dendritic cell [1] (dose 10.0 µg/ml) and in the data set with Dendritic cell [2] (dose 10.0 µg/ml) was inactive.

Take `CNCC[C@]1(O)C(=O)N(CC=C(C)C)c2cc(Br)ccc21`: the result in the data set on Dendritic cell [1] (dose 10.0 µg/ml) and with Dendritic cell [2] (dose 10.0 µg/ml) was inactive.

As for `CO[C@H](c1[nH]c2cc(Br)ccc2c1CCN(C)C)[C@@H](O)C(C)(C)O`, the Activity result with Dendritic cell [3] was “Non-Toxic”; with Dendritic cell [2] (dose 10 µg/ml) it was 45%. Turning to `C=CC(C)(C)c1[nH]c2cc(Br)ccc2c1CC[N+]1(C)CCOC1` (configuration not stated), the Activity entry is given as “Non-Toxic” with Dendritic cell [3] and 45% in the data set on Dendritic cell [2] (dose 10 µg/ml).

In the case of `CN(C)CCc1c[nH]c2cc(Br)ccc12.O=C(O)C(F)(F)F`, the Activity result in the data set with Dendritic cell [3] is recorded as “Non-Toxic”; in the data set with Dendritic cell [2] (dose 10 µg/ml), 45%. Regarding `C=CC(C)(C)[C@@]1(CCNC)C(=O)Nc2cc(Br)ccc21`, the result in the data set on Dendritic cell [1] (dose 10.0 µg/ml) and in the data set with Dendritic cell [2] (dose 10.0 µg/ml) was inactive.

As to `C=CC(C)(C)c1c(CCNC)c2ccc(Br)cc2n1C.O=C(O)C(F)(F)F`, the Activity result with Dendritic cell [3] was “Non-Toxic”; in the data set with Dendritic cell [2] (dose 10 µg/ml), 45%.

Regarding `CC(C)=CC[C@@]12CCN(C)[C@@H]1N(C(O)C(O)C(C)(C)O)c1cc(Br)ccc12` (some centres not stated), the outcome in the data set on Dendritic cell [1] (dose 10.0 µg/ml) and in the data set on Dendritic cell [2] (dose 10.0 µg/ml) was inactive. A word on the IC50: it is the midpoint of a concentration-inhibition curve. `CNCCc1cn(CC=C(C)C)c2cc(Br)ccc12.O=C(O)C(F)(F)F`: the IC50 in the data set on Dendritic cell [4] amounted to 2900 nM. Further, the Activity entry in the data set with Dendritic cell [3] is “Non-Toxic”; in the data set on Dendritic cell [2] (dose 10 µg/ml) it was 45%. As to `C=CC(C)(C)[C@@]12CCN(C)[C@@H]1N(C)c1cc(Br)ccc12`, the result in the data set with Dendritic cell [1] (dose 10.0 µg/ml) and in the data set on Dendritic cell [2] (dose 10.0 µg/ml) was inactive. Take `CC(C)C(=O)c1c(CCN(C)C)c2ccc(Br)cc2[nH]c1=O`: the values for the Activity result with Dendritic cell [3] and with Dendritic cell [2] (dose 10 µg/ml) were “Non-Toxic” and 45%, respectively. In the same order, the values of `C=CC(C)(C)C(=O)Nc1cc(Br)ccc1C(=O)O` are “Non-Toxic” and 45%. As to `CC1=C[C@H]2[C@@H]([C@@H](c3[nH]c4cc(Br)ccc4c3CCN(C)C)[C@]34CC[N+](C)(C)[C@]23Nc2cc(Br)ccc24)C(C)(C)C1` (relative stereo), in the data set on Dendritic cell [1] (dose 10 µg/ml), the Activity was determined as 19%. As for `O=C(O)C(F)(F)F.O=Cc1c[nH]c2cc(Br)ccc12`, the Activity result is “Non-Toxic” in the data set with Dendritic cell [3] and 45% in the data set with Dendritic cell [2] (dose 10 µg/ml). Consider `CC(C)=CC[C@@]12CCN(C)[C@@H]1N(CC(O)C(C)(C)O)c1cc(Br)ccc12` (some centres not stated), for which the result with Dendritic cell [1] (dose 10.0 µg/ml) and in the data set with Dendritic cell [2] (dose 10.0 µg/ml) was inactive. For `CC(C)=CC[C@@]12CCN(C)[C@@H]1Nc1c(Br)ccc(O)c12`, the outcome with Dendritic cell [1] (dose 10.0 µg/ml) and with Dendritic cell [2] (dose 10.0 µg/ml) was inactive. As to `C=CC(C)(C)[C@@]12CCN[C@@H]1Nc1cc(Br)ccc12`, the outcome with Dendritic cell [1] (dose 10.0 µg/ml) and in the data set on Dendritic cell [2] (dose 10.0 µg/ml) was inactive.
